The record followed here is US8163724B2, “Glucocorticosteroids, processes for their preparation, pharmaceutical compositions containing them and their use in therapy” (AstraZeneca AB, priority 2007, dated 2012).

Broadly, the IC50 is the concentration needed to halve the response being measured.

The target of the assay is T1, recombinant human GR (Homo sapiens, UniProt P04150).
T1 construct: purchased Panvera/Invitrogen P2812 (kit P2893)
T1 sequence (P04150 1-777): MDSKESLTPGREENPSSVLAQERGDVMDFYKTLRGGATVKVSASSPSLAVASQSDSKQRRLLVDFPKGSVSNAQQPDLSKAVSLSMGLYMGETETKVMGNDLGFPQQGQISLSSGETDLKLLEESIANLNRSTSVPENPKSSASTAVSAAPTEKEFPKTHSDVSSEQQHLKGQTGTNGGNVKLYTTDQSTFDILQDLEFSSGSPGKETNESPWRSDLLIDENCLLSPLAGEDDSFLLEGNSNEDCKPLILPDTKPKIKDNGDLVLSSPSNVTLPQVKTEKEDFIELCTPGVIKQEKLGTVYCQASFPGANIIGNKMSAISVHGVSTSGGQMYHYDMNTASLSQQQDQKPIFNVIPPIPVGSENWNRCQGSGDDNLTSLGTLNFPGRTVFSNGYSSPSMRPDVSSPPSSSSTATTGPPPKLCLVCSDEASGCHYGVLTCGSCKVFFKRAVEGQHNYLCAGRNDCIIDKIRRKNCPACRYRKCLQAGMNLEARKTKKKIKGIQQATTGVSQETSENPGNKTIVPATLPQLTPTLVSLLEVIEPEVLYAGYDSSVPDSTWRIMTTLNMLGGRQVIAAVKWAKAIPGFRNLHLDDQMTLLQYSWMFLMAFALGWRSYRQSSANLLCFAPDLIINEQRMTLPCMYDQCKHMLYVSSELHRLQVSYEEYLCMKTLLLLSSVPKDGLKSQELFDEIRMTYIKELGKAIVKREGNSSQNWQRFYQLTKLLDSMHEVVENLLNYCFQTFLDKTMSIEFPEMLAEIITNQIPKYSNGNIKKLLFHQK
Put plainly: Human Glucocorticoid Receptor (GR) Assay (fluorescence polarization, Panvera/Invitrogen kit). The settings on record: fluorescence polarization; GS Red tracer; 2 hours at room temperature; 100% control 10 μM Dexamethasone; read-out: Inhibition of GR binding, IC50. The assay is classed as binding. In short, it runs like this:
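Fluorescence polarization competition with recombinant GR and GS Red fluorescent ligand plus stabilizing peptide and DTT in potassium phosphate/sodium molybdate/EDTA buffer with DMSO. Incubated 2 hours at room temperature in the dark; 0% control DMSO, 100% control 10 μM dexamethasone.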
Background: In fluorescence polarisation assays a small probe gives low polarisation when free and higher when bound to something large.
Turning to `C[C@]12Cc3cnn(-c4ccc(F)cc4)c3C=C1CC[C@@H]1[C@@H]2[C@@H](O)C[C@@]2(C)[C@H]1CC[C@]2(OC(=O)C1(C#N)CC1)C(=O)SCC#N` [Example 146, (1R,3aS,3bS,10aR,10bS,11S,12aS)-1-{[(Cyanomethyl)sulfanyl]carbonyl}-7-(4-fluorophenyl)-11-hydroxy-10a,12a-dimethyl-1,2,3,3a,3b,4,5,7,10,10a,10b,11,12,12a-tetradecahydrocyclopenta[5,6]naphtho[1,2-f]indazol-1-yl 1-cyanocyclopropane Carboxylate], the IC50 turned out to be 3.4 nM. For the molecule `C[C@]12Cc3cnn(-c4ccccn4)c3C=C1CC[C@@H]1[C@@H]2[C@@H](O)C[C@@]2(C)[C@H]1CC[C@]2(OC(=O)C1CC1)C(=O)SCF` [Example 149, (1R,3aS,3bS,10aR,10bS,11S,12aS)-1-{[(Fluoromethyl)sulfanyl]carbonyl}-11-hydroxy-10a,12a-dimethyl-7-pyridin-2-yl-1,2,3,3a,3b,4,5,7,10,10a,10b,11,12,12a-tetradecahydrocyclopenta[5,6]naphtho[1,2-f]indazol-1-yl cyclopropane Carboxylate], the IC50 worked out at 5 nM. Next, `C[C@]12Cc3cnn(-c4ccc(Cl)cn4)c3C=C1CC[C@@H]1[C@@H]2[C@@H](O)C[C@@]2(C)[C@H]1CC[C@]2(OC(=O)C1CC1)C(=O)SCF` [Example 150, (1R,3aS,3bS,10aR,10bS,11S,12aS)-7-(5-Chloropyridin-2-yl)-1-{[(fluoromethyl)sulfanyl]carbonyl}-11-hydroxy-10a,12a-dimethyl-1,2,3,3a,3b,4,5,7,10,10a,10b,11,12,12a-tetradecahydrocyclopenta[5,6]naphtho[1,2-f]indazol-1-yl cyclopropane Carboxylate]: 21 nM; `C[C@]12Cc3cnn(-c4ccc(F)nc4)c3C=C1CC[C@@H]1[C@@H]2[C@@H](O)C[C@@]2(C)[C@H]1CC[C@]2(OC(=O)C1CC1)C(=O)SCC#N` [Example 152, (1R,3aS,3bS,10aR,10bS,11S,12aS)-1-{[(Cyanomethyl)sulfanyl]carbonyl}-7-(6-fluoropyridin-3-yl)-11-hydroxy-10a,12a-dimethyl-1,2,3,3a,3b,4,5,7,10,10a,10b,11,12,12a-tetradecahydrocyclopenta[5,6]naphtho[1,2-f]indazol-1-yl cyclopropanecarboxylate]: 7 nM; `CSC(=O)[C@@]1(OC(=O)C2CC2)CC[C@H]2[C@@H]3CCC4=Cc5c(cnn5-c5ccc(F)nc5)C[C@]4(C)[C@H]3[C@@H](O)C[C@@]21C` [Example 153, (1R,3aS,3bS,10aR,10bS,11S,12aS)-7-(6-Fluoropyridin-3-yl)-11-hydroxy-10a,12a-dimethyl-1-[(methylsulfanyl)carbonyl]-1,2,3,3a,3b,4,5,7,10,10a,10b,11,12,12a-tetradecahydrocyclopenta[5,6]naphtho[1,2-f]indazol-1-yl cyclopropanecarboxylate]: 2.4 nM.

As to `COCSC(=O)[C@@]1(OC(=O)C2CC2)CC[C@H]2[C@@H]3CCC4=Cc5c(cnn5-c5ccc(F)nc5)C[C@]4(C)[C@H]3[C@@H](O)C[C@@]21C` [Example 154, (1R,3aS,3bS,10aR,10bS,11S,12aS)-7-(6-Fluoropyridin-3-yl)-11-hydroxy-1-{[(methoxymethyl)sulfanyl]carbonyl}-10a,12a-dimethyl-1,2,3,3a,3b,4,5,7,10,10a,10b,11,12,12a-tetradecahydrocyclopenta[5,6]naphtho[1,2-f]indazol-1-yl cyclopropanecarboxylate], the IC50 came to 5.9 nM.
